Test results reported in patent US20050089535A1, “Delivery of biologically active agents” (priority 2002, published 2005).

Experiment: Use of the Weston needleless injector to evaluate penetration of the cervix (dye track)
Design: species or system human
Details: 0.2 ml of 1 mg/ml methylene blue in phosphate buffered saline, Weston needleless injector held against ectocervix, ex vivo cervix from non-pregnant women
Experimental: A Weston needleless injector was loaded with 0.2 ml of dye (1 mg/ml of methylene blue {Sigma} in phosphate buffered saline). Whole human cervix was obtained at hysterectomy from non-pregnant women of reproductive age. The cervix was tested within 30 minutes of removal from the patient. The needleless injector device was held against the ectocervix region. Increased pressure on the needleless injector activated the device. Two injections were performed for each specimen.
The cervix was dissected along the track of the injection (FIG. 2) and the length of the dye track was measured. In four experiments the length of the track was a mean of 6.1 mm (standard error of the mean=1.9 mm). The mean lateral spread (any signs of the blue dye) was 8.8 mm.

mean lateral spread (any signs of the blue dye): 8.8 mm | length of the dye track (mean) (four experiments, SEM 1.9 mm): 6.1 mm
Compound: CN(C)c1ccc2nc3ccc(=[N+](C)C)cc-3sc2c1 [dye, methylene blue]
